The text below walks through data of the NIST ThermoML archive (doi:10.1016/j.jct.2014.01.016).

The conditions of the data set: 298.15 K; Liquid; Gas chromatography.
In general, vapor or sublimation pressure refers to the pressure of vapour in equilibrium with the condensed phase. In the case of `CCC1CCC(=O)O1` (stereo unspecified) [2(3H)-furanone, 5-ethyldihydro-], the “vapor or sublimation pressure” value turned out to be 0.0225 kPa.
For `CCCCCC1CCC(=O)O1` (stereo unspecified) [2(3H)-furanone, dihydro-5-pentyl-] the value was 0.00097 kPa; for `CCCCCC1CCCC(=O)O1` (stereo unspecified) [2H-pyran-2-one, tetrahydro-6-pentyl-], 0.00027 kPa.
For `CCCC1CCCC(=O)O1` (stereo unspecified) [2H-pyran-2-one, tetrahydro-6-propyl-] the value was 0.00221 kPa; for `CCCCCCC1CCC(=O)O1` (stereo unspecified) [γ-decalactone], 0.00033 kPa.
As for `CCCCCCCCC1CCC(=O)O1` (stereo unspecified) [γ-dodecanolactone], the figure is 4e-05 kPa.
Take `CCCCC1CCC(=O)O1` (stereo unspecified) [γ-octanolactone]: the “vapor or sublimation pressure” value is given as 0.00278 kPa.
For `CCCCCCCC1CCC(=O)O1` (stereo unspecified) [γ-undecanolactone] the value was 0.00012 kPa; for `CCCCCCCC1CCCC(=O)O1` (stereo unspecified) [δ-dodecanolactone], 3e-05 kPa; for `CCCCC1CCCC(=O)O1` (stereo unspecified) [δ-nonanolactone], 0.00076 kPa.
For `CCCCCCC1CCCC(=O)O1` (stereo unspecified) [δ-undecanolactone] the value was 9e-05 kPa.
